One compound from PMC6014988, “Precision therapeutic targeting of human cancer cell motility” (Nature Communications, 2018) can be followed below.

Data set [1] can be described thus: Three-day MTT cell growth inhibition assay, 1532NPTX. As to conditions: human, 1532NPTX cells. The data set is classed as cell-based, human.
For the next data set, the system named is 1532NPTX. Described as above. The format is cell-based, human. As to conditions: Homo sapiens, 72 h, 3 days.
Data set [2] has as its target T1, HSP90β (Homo sapiens, UniProt P08238+Q16543).
T1 construct: made in house; host or cells: E. coli (HSP90β, CDC37); SGK3 purchased from Thermo Scientific #PV3859
Briefly: In vitro kinase assay, SGK3 phosphorylation of HSP90β. The data set is classed as biochemical.

Data set [3] has as its system over 400 different protein kinases and 20 phosphatases. Description: Kinase and phosphatase inhibition, three in vitro assay systems. The data set is classed as biochemical. As to the method: Initial assays were performed with PC3 and PC3-M cells (PC3 cell data not shown). However, as these studies yielded similar findings, subsequent screening assays utilized only PC3-M cells. In designing chemical synthetic routes, priority was given to efficacy and toxicity parameters. Additional design features were also included in our chemical […]
toxicity parameters. These additional design features included removal of fragments that mediated genistein binding to the estrogen receptor (ER), as determined by ER-genistein 3D x-ray crystal structures (Protein Data Base IDs:1X7R and 1X7J, for crystal structures of ERα and ERβ with bound genistein, respectively). These features also included removal of chemical fragments that are considered to increase susceptibility to rapid metabolism, especially that by the cytochrome P450 (CYP) pathway. The final feature involved incorporation of chemical characteristics previously shown to be associated with effective drugs and which together generally impart more favorable pharmacologic properties, including those described by Lipinski […]
Supplementary Note 2. […] Three […]
different assays systems were employed.
Kinase assay system #1. The KINOMEscan™ assay (Ambit Biosciences). This assay evaluates 442 kinases, including 400 distinct parental kinases plus mutants known to alter activity or responsiveness. […]

For data set [4], the target named is T2, HSP90β (Homo sapiens, UniProt P08238).
T2 construct: made in house; host or cells: Rosetta BL-21 E. coli
Description: Biophysical binding assays and DARTS, isolated HSP90β. As to conditions: ITC, thermal shift, biolayer interferometry, dynamic light scattering, DARTS. As for the experimental part: Fluorescent thermal shift, isothermal titration calorimetry, and biolayer interferometry assays[46] were all performed as described by us using MEK4EE (37-399, S257E, T261E) cloned into pMCSG7 and KRX Competent E. coli cells (Promega Inc.) and above denoted full-length HSP90B and CDC37 vectors and Rosetta BL-21 and BL-21 DE-3 competent E. coli cells, respectively. DARTS assays were conducted as described, using equimolar amounts of CDC37 and HSP90β, thermolysin digestion, and silver stain visualization (ProteoSilver Silver Stain Kit, Sigma-Aldrich).
Supplementary Figure 14. […] Studies used purified […]
recombinant HSP90β or CDC37. Fluorescent thermal shift 5, isothermal titration calorimetry 6, […]
evidence of KBU2046 binding to either HSP90β or CDC37 (data not shown). For DARTS assay, HSP90β or CDC37 were individually pre-incubated with KBU2046, thermolysin added, and reaction products were separated by SDS PAGE and visualized by silver stain (depicted above).
NTco – no thermolysin control. However, when the DARTS assay was conducted with both HSP90β and CDC37 present, KBU2046 protected both proteins from degradation in a concentration-dependent manner (see manuscript Fig 5A).
(also on this page, place not known: HSP90 Ntco 0 0.001 0.01 0.1 1.0 10 µM KBU2046, thermolysin NTco thermolysin CDC37)
(1 picture or pasted object on this page, not shown here)
On the technique in general: In BLI a coated tip is dipped into the sample, and binding shifts an interference pattern.

Data set [5] has as its system human prostate, breast, colon, and lung cancer cells. Briefly: Single-cell migration assay. As to conditions: 10 µM, 3 days. The format is cell-based. As for the experimental part: Human prostate metastatic cells (PC3, PC3-M), and HPV-transformed normal (1532NPTX, 1542NPTX) and primary cancer (1532CPTX, 1542CPTX) cells, were treated with 10 µM genistein (G), KBU2046 (46), or vehicle (CO), and after 3 days, cell invasion was measured. Values are mean ± SEM of a single experiment in replicates of N = 4, with similar findings in multiple separate experiments (also N = 4). c Single-cell migration. Cell migration was measured after treatment for 3 days with 10 µM KBU2046 or vehicle (control). Values are mean ± SEM of a single experiment in replicates of N = 24, with similar findings in a separate experiment (also N = 24). *Denotes Student’s t-test P value <0.05, compared to controls. d Human cord blood hematopoietic stem cell colony formation assay. Values are the mean ± SD number of total, CFU-GM, CFU-GEMM, or BFU-E colonies at 14 days after treatment with KBU2046, from a single experiment in replicates of N = 2. e Induction of estrogen-responsive genes. Values are the mean ± SD of a single experiment, with similar results seen in a separate experiment, both in replicates of N = 2 […]

Data set [6] concerns p38 MAPK and HSP27 phosphorylation. Description: Phosphorylation of p38 MAPK and HSP27 in PC3-M cells, Western blot. The format is cell-based, human. The conditions noted are these: 50 µM, 24 hours, then TGFβ. As for the experimental part: Supplementary Figure 9. […] (a) Depiction of […]
established MKK4 pathway regulating human PCa cell metastasis. […]
to MKK4, as measured by fluorescence-based thermal shift assay. Values are the mean±SD (of N=2 replicates) increase in melting temperature (ΔTm) of purified recombinant MKK4 induced by the indicated concentrations of KBU2046 or genistein. […]
in an in vitro kinase assay. The indicated concentrations of KBU2046 were added to recombinant activated MKK4, and its ability to phosphorylate kinase dead p38α MAPK (K53A) was measured by Western blot for total (p38 MAPK) and phosphorylated (pp38 MAPK) forms of […]
HSP27 in cells. PC3-M cells were pre-treated for 24 hours with 50 µM KBU2046 or genistein, as indicated, then with TGFβ, and Western blot performed. All findings are from a single experiment, with similar findings in identical separate experiments, repeated at least once. […]

T1 sequence (P08238 whole entry): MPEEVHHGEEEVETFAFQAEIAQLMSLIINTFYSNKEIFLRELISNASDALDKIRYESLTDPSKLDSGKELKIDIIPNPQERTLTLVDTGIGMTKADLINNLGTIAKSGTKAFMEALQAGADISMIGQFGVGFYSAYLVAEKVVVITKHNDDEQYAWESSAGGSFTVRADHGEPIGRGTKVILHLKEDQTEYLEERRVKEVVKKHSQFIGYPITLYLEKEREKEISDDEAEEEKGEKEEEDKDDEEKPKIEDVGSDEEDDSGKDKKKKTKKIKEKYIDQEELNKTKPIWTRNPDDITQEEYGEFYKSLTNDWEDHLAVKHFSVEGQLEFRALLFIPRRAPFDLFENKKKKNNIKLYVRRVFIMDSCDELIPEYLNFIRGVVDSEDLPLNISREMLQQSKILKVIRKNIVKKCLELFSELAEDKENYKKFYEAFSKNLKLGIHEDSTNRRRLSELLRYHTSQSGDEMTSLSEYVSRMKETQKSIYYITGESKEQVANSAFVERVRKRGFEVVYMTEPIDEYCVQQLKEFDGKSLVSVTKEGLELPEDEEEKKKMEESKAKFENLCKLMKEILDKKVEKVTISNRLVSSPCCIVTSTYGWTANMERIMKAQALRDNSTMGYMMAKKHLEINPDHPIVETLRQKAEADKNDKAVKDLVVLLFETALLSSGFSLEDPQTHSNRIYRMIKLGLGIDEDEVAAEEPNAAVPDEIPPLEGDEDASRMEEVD
T1 sequence (Q16543 whole entry): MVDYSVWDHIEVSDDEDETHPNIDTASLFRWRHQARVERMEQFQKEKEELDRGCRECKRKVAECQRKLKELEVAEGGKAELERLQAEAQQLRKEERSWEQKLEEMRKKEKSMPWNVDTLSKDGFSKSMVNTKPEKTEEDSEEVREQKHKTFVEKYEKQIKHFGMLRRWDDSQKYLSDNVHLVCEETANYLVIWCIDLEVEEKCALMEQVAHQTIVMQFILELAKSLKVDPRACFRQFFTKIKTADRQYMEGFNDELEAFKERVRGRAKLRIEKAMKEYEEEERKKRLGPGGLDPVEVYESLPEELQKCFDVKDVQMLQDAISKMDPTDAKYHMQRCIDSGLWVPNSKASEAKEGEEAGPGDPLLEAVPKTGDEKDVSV
T2 sequence (P08238 whole entry): as the sequence (P08238 whole entry) above

The term viability denotes a read-out of living cells in per cent, often relative to untreated cells. As usually defined, the IC20 is the concentration needed for an effect of 20%. Read a low IC20 as greater potency. In general, IC50 refers to the concentration at which inhibition is half-maximal. On to `O=C1c2ccccc2OCC1c1ccc(F)cc1` (racemic) [KBU2046, (±)-3(4-fluorophenyl)chroman-4-one], for which the viability at 3 days, 50 µM in data set [1] worked out at 95.3%. Moreover, in the data set with 1532NPTX, the IC20 was > 50 µM and the IC50 was > 50 µM. Further, the “SGK3-mediated phosphorylation of HSP90β” value on HSP90β [2] (HSP90β, CDC37, SGK3) was “phosphorylation was further increased”. Moreover, the “SGK3-mediated phosphorylation of HSP90β” value on HSP90β [2] (with MAP3K6 added) is listed as “decreases in the presence of KBU2046”. The “inhibition of protein kinases and phosphatases” value in data set [3] was “failure to inhibit”. Further, the “binding to HSP90β” value on HSP90β [4] is “no evidence of KBU2046 binding”. The cell migration entry in data set [5] is recorded as “inhibited the migration”. In data set [6], the “downstream phosphorylation of p38 MAPK and HSP27” value is listed as “did not inhibit downstream phosphorylation”.
